The structures appear in SMILES notation.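 Each compound was tested at five concentrations against cells in 96-well plates for 48 hours. GI50 = concentration required for 50% inhibition of growth.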 Active and inactive are the calls of the source. Rule as the data show it: active = GI50 up to about 1.1 µM and inactive = higher.

Test systems include EKVX; SK-MEL-2; MDA-MB-231; HT-29; TK-10; SF-539; M14; SNB-19; SK-OV-3; OVCAR-4; UACC-62; HOP-92; ACHN; K562; SW-620; DU-145; IGROV-1; SR; CAKI-1; NCI-H226.
Common to all, as to assay: NCI anticancer screen, dose series, 48 h

On to `O=C1N[C@@H]([C@H]2CC[C@H](Cl)CN2)C(=O)N[C@H]1[C@H]1CC[C@H](Cl)CN1`, for which the GI50 with EKVX is 3.32 µM (inactive); in the assay on SK-MEL-2 it was 2.56 µM (inactive); in the assay with MDA-MB-231 it was 0.925 µM (active); in the assay on HT-29 it was 1.83 µM (inactive); in the assay on TK-10, 4.42 µM (inactive); in the assay on SF-539, 0.357 µM (active). Also, the GI50 with M14 is 0.158 µM (active); in the assay on SNB-19, 1.37 µM (inactive); in the assay with SK-OV-3 it was 0.836 µM (active); in the assay on OVCAR-4, 2.77 µM (inactive); with UACC-62, 0.137 µM (active); with HOP-92, 0.757 µM (active). Also, the GI50 in the assay with ACHN is 0.1 µM (active); in the assay with K562 it was 1.39 µM (inactive); with SW-620 it was 0.962 µM (active); in the assay on DU-145 it was 0.108 µM (active); in the assay with IGROV-1 it was 4.34 µM (inactive); with SR, 0.1 µM (active). Also, the GI50 was 0.261 µM (active) in the assay on CAKI-1 and 1.04 µM (active) in the assay with NCI-H226.
Turning to `COc1ccc(OC)c2c1C=CC(Br)=CC2`, the GI50 is 0.309 µM (active) in the assay with EKVX; 0.106 µM (active) in the assay on SK-MEL-2; 0.285 µM (active) with MDA-MB-231; 0.136 µM (active) with HT-29; 0.292 µM (active) in the assay on TK-10; 0.653 µM (active) in the assay on SF-539. For the same compound, the GI50 in the assay on M14 is 0.237 µM (active); with SNB-19, 0.611 µM (active); in the assay with SK-OV-3, 0.0582 µM (active); in the assay with OVCAR-4 it was 0.4 µM (active); with UACC-62 it was 0.137 µM (active); in the assay on HOP-92 it was 0.148 µM (active). Also, the GI50 in the assay on ACHN was 0.312 µM (active); in the assay with K562, 0.173 µM (active); in the assay with SW-620, 0.234 µM (active); with DU-145, 0.975 µM (active); in the assay on IGROV-1, 0.279 µM (active); with SR, 0.191 µM (active). In addition, the values for the GI50 with CAKI-1 and in the assay on NCI-H226 were 0.269 µM (active) and 0.372 µM (active), respectively.
On to `c1ccc(-c2nc(-c3ccccc3)c(-c3ccccc3)[nH]2)cc1`, for which the GI50 in the assay with EKVX is > 83.6 µM (inactive); in the assay with SK-MEL-2, > 100 µM (inactive); with MDA-MB-231 it was > 72.6 µM (inactive); in the assay on HT-29 it was > 94.6 µM (inactive); with TK-10 it was > 100 µM (inactive); in the assay with SF-539, > 100 µM (inactive). Besides, the GI50 is > 100 µM (inactive) in the assay with M14; > 100 µM (inactive) in the assay with SNB-19; > 100 µM (inactive) in the assay on SK-OV-3; 85.9 µM (inactive) in the assay on OVCAR-4; > 94.4 µM (inactive) with UACC-62; > 100 µM (inactive) in the assay on HOP-92. In addition, the GI50 in the assay on ACHN is > 100 µM (inactive); in the assay with SW-620 it was > 100 µM (inactive); in the assay on DU-145, > 100 µM (inactive); with IGROV-1 it was > 91.6 µM (inactive); in the assay with SR it was 17.5 µM (inactive); with CAKI-1 it was > 100 µM (inactive). For the same compound, in the assay with NCI-H226, the GI50 is > 100 µM (inactive).
As for `Cc1cn(C2CC(O)C(COP(=O)(O)OC3CC(n4c[n+]([BH2-]C#N)c5c(=O)[nH]c(N)nc54)OC3CO)O2)c(=O)[nH]c1=O` (stereo not given), the GI50 in the assay with EKVX, with SK-MEL-2, in the assay with MDA-MB-231, in the assay on HT-29, in the assay with TK-10 and with SF-539 was > 100 µM (inactive) in each case. The GI50 in the assay with SNB-19, in the assay with SK-OV-3, in the assay on OVCAR-4, in the assay on UACC-62, in the assay with HOP-92 and in the assay on ACHN was > 100 µM (inactive) in each case. Besides, the GI50 in the assay with K562, with SW-620, in the assay on DU-145, in the assay on IGROV-1, in the assay on SR and in the assay with CAKI-1 was > 100 µM (inactive) throughout. In the assay on NCI-H226, the GI50 is > 100 µM (inactive).
As to `C/C(=N\NC(=S)N1CCN(c2ccccn2)CC1)c1ncccn1`, the GI50 in the assay with EKVX was 0.291 µM (active); in the assay with SK-MEL-2 it was 0.31 µM (active); in the assay on MDA-MB-231, 0.0214 µM (active); in the assay with HT-29, 0.0161 µM (active); in the assay with TK-10, 2.67 µM (inactive); in the assay on SF-539, 0.527 µM (active). The GI50 with M14 is 0.0515 µM (active); with SNB-19 it was 2.56 µM (inactive); in the assay on SK-OV-3, 0.284 µM (active); in the assay with OVCAR-4, 0.205 µM (active); in the assay with UACC-62, 0.0344 µM (active); with HOP-92, 1.63 µM (inactive). Also, the GI50 was 0.0693 µM (active) in the assay on ACHN; 0.00711 µM (active) in the assay with K562; 0.196 µM (active) in the assay with SW-620; 2.51 µM (inactive) in the assay with DU-145; 0.00275 µM (active) in the assay on IGROV-1; 0.0863 µM (active) with SR. Also, the GI50 in the assay with CAKI-1 is 1.76 µM (inactive); in the assay with NCI-H226 it was 0.216 µM (active).
For the compound `O=C1C=C(OCCCCl)C(=O)c2c(O)ccc(O)c21`, the GI50 is 1.79 µM (inactive) in the assay with EKVX; 1.02 µM (active) in the assay on SK-MEL-2; 1.74 µM (inactive) in the assay with MDA-MB-231; 0.581 µM (active) in the assay with HT-29; 1.81 µM (inactive) in the assay with TK-10; 1.38 µM (inactive) with SF-539. In addition, the GI50 was 0.188 µM (active) in the assay with M14; 1.8 µM (inactive) in the assay with SNB-19; 2.24 µM (inactive) in the assay with SK-OV-3; 1.25 µM (inactive) in the assay with OVCAR-4; 0.286 µM (active) in the assay on UACC-62; 1.42 µM (inactive) with HOP-92. Besides, the GI50 is 1.59 µM (inactive) with ACHN; 1.26 µM (inactive) in the assay on K562; 0.277 µM (active) in the assay on SW-620; 0.303 µM (active) in the assay with DU-145; 1.8 µM (inactive) in the assay with IGROV-1; 0.871 µM (active) with SR. For the same compound, the GI50 with CAKI-1 is 1.85 µM (inactive); in the assay with NCI-H226 it was 1.84 µM (inactive).
In the case of `C[C@@H]1C[C@](O)([C@@H](C)Cl)C(=O)O[C@@H]2CCN3CC=C(COC(=O)[C@]1(C)O)[C@H]23`, the GI50 with EKVX, with SK-MEL-2, with MDA-MB-231, in the assay on HT-29, in the assay on TK-10 and in the assay with SF-539 was > 100 µM (inactive) each time. For the same compound, the GI50 is > 100 µM (inactive) in the assay on M14; > 10 µM (inactive) in the assay with SNB-19; > 100 µM (inactive) in the assay with SK-OV-3; > 100 µM (inactive) with OVCAR-4; > 100 µM (inactive) in the assay on UACC-62; > 100 µM (inactive) in the assay with HOP-92. Besides, the GI50 in the assay with ACHN is > 10 µM (inactive); in the assay with K562 it was > 100 µM (inactive); in the assay on SW-620, > 100 µM (inactive); in the assay on DU-145, > 100 µM (inactive); in the assay on IGROV-1 it was > 100 µM (inactive); in the assay on SR it was > 100 µM (inactive). Also, the GI50 in the assay with CAKI-1 and in the assay on NCI-H226 was > 100 µM (inactive) each time.
As to `Cc1ccc(/C=C2\CCCC(CN3CCCCC3)C2=O)cc1` (stereo not given), the GI50 in the assay on EKVX was 17.6 µM (inactive); in the assay on SK-MEL-2, 2.89 µM (inactive); in the assay with MDA-MB-231 it was 1.85 µM (inactive); in the assay on HT-29 it was 1.77 µM (inactive); in the assay on TK-10, 3.22 µM (inactive); in the assay on SF-539, 4.42 µM (inactive). For the same compound, the GI50 was 15.2 µM (inactive) with SNB-19; 16.5 µM (inactive) with SK-OV-3; 1.79 µM (inactive) with OVCAR-4; 4.73 µM (inactive) in the assay with UACC-62; 1.81 µM (inactive) with HOP-92; 3.98 µM (inactive) with ACHN. Further, the GI50 in the assay on K562 is 1.57 µM (inactive); with SW-620 it was 1.75 µM (inactive); in the assay with DU-145 it was 11.7 µM (inactive); in the assay on IGROV-1 it was 1.96 µM (inactive); with SR, 0.767 µM (active); in the assay on CAKI-1, 1.79 µM (inactive). Also, in the assay with NCI-H226, the GI50 is 2.29 µM (inactive).
As to `COc1ccc(/C=C2/CCS(=O)(=O)c3ccc(C)cc3C2=O)cc1OC`, the GI50 is 13.7 µM (inactive) in the assay with EKVX; 20 µM (inactive) in the assay with SK-MEL-2; 12.8 µM (inactive) in the assay on MDA-MB-231; 13.9 µM (inactive) in the assay with HT-29; 13.6 µM (inactive) with TK-10; 14.6 µM (inactive) with SF-539. Besides, the GI50 with M14 was 17.2 µM (inactive); with SNB-19, 14.1 µM (inactive); in the assay on SK-OV-3 it was 21.6 µM (inactive); in the assay on OVCAR-4 it was 11.3 µM (inactive); in the assay with UACC-62 it was 5.97 µM (inactive); with HOP-92, 2.36 µM (inactive). Moreover, the GI50 in the assay on ACHN is 12.9 µM (inactive); in the assay on K562, 24.8 µM (inactive); with SW-620 it was 22.8 µM (inactive); with DU-145 it was 3.73 µM (inactive); with IGROV-1, 6.4 µM (inactive); with SR, 20.6 µM (inactive). Also, the GI50 with CAKI-1 is 17.2 µM (inactive); in the assay with NCI-H226, 14.3 µM (inactive).
As to `Cc1ccc(S(=O)(=O)N(CC(O)COc2ccccc2)c2c(F)c(F)c(F)c(F)c2F)cc1` (stereo not given), the GI50 was 17.9 µM (inactive) with EKVX; 16.4 µM (inactive) in the assay on SK-MEL-2; 12.8 µM (inactive) in the assay with MDA-MB-231; 16.2 µM (inactive) with HT-29; 24.7 µM (inactive) in the assay with TK-10; 19.8 µM (inactive) in the assay with SF-539. Besides, the GI50 in the assay on M14 was 20 µM (inactive); with SNB-19 it was 18.5 µM (inactive); in the assay with SK-OV-3 it was 19.9 µM (inactive); in the assay on OVCAR-4 it was 13.3 µM (inactive); in the assay with UACC-62 it was 13.7 µM (inactive); with HOP-92, 8.49 µM (inactive). The GI50 in the assay on ACHN was 15.7 µM (inactive); in the assay with SW-620 it was 18.7 µM (inactive); in the assay with DU-145, 22.3 µM (inactive); in the assay on SR, 20.7 µM (inactive); in the assay on CAKI-1 it was 0.237 µM (active); with NCI-H226, 17.9 µM (inactive).

The record behind these values is ChEMBL document CHEMBL1201862, “PubChem BioAssay data set” (2004).
